Data from patent EP4806894A1, “TNAP INHIBITORY COMPOUND AND USE THEREOF” (Rednvia Co., Ltd., priority 2023, dated 2025).
pIC50: −log10 of the molar value.

What was measured:
TNAP = biological target: T1, TNAP (Homo sapiens, UniProt P05186); assay: TNAP inhibitory activity, colorimetric assay (alkaline phosphatase assay kit ab83369, pNPP substrate); format: biochemical; conditions: TNAP enzyme, 2 hours at room temperature, absorbance 405 nm
T1 sequence (P05186 18-502 limits assumed): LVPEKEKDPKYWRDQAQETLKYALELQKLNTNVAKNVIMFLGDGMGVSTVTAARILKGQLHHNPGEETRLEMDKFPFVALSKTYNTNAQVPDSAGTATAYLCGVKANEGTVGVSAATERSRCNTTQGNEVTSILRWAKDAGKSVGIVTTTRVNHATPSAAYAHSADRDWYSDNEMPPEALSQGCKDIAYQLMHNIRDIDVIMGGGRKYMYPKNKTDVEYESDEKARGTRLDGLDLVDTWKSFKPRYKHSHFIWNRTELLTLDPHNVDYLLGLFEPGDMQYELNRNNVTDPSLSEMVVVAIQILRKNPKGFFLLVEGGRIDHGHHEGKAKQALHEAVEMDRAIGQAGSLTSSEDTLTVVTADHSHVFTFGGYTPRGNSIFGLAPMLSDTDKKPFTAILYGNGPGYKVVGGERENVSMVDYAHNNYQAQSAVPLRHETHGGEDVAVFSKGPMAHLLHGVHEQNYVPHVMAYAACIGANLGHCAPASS

C57BL/6 mouse [1] = assay: Vitamin D-induced calcification mouse animal model (aortic valve histopathology); format: in vivo; conditions: for blackened area (von Kossa staining, increased calcification): Figure 2, versus high-dose vitamin D3-induced calcification group (B); for Number of inflammatory cells (cells/mm^2): aortic valve area; for Number of inflammatory cells (cells/mm^2) / Mean thickness (µm): HE staining; for Number of inflammatory cells (cells/mm^2) / Mean thickness (µm) / Calcified area (%/mm^2): vitamin D3 6.5x10^5 IU/Kg s.c. for 3 days, compound orally once a day for 8 days, mouse; for Mean thickness (µm) / Calcified area (%/mm^2): aortic valve; for Calcified area (%/mm^2): von Kossa staining
Procedure: (§1) Individual heart samples were cut crosswise, one section at a time, around the origin/root region of the ascending aorta. Histological sections were then prepared from all the samples received. All cross-sectioned cardiac-aortic valve sections were refixed in 10% neutral buffered formalin for 24 hours to prepare histological samples. After the samples were embedded in paraffin, two serial sections of 3 to 4 µm thickness were prepared on each paraffin block and stained with hematoxylin & eosin (HE) for general histopathology or von Kossa (VK) for calcium deposition, respectively. To observe more detailed changes, a computer-assisted image analysis program and a histological camera system were used to calculate the mean aortic valve thickness (µm) and the number of inflammatory cells infiltrating the aortic valve area (cells/mm^2) in HE staining, and the mean calcified aortic valve area (%/mm^2) in VK staining in this histopathological analysis.
Experimental animals were prepared similarly to Experimental Example 3. Excluding the normal group, four groups were administered with high-dose (6.5x10^5 IU/Kg) vitamin D3 subcutaneously once a day for a total of 3 days to induce calcification. The compounds of Examples 1 and 6 were administered orally together from the first day of vitamin D3 administration, and then administered once a day for 5 more days without vitamin D3 administration, for a total of 8 days.
Samples were obtained and analyzed in the same manner as in Experimental Example 3.

saos-2 cells = assay: Anticalcification efficacy in saos-2 cells (osteogenic medium, Alizarin Red staining); format: cell-based; conditions: test compound 1 µM, 7 days osteogenic medium, Alizarin Red absorbance 540 nm; for inhibition at 1 µM: Homo sapiens, 168 h, read-out: calcification inhibition
How it was run: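 Saos-2 cells at 80–90% confluence induced for 7 days in osteogenic medium (DMEM, 100 nM dexamethasone, 10 mM β-glycerophosphate, 0.05 mM ascorbic acid), compound (0.5, 1, 5, 10 […]) added with each medium change. Alizarin Red staining eluted with cetylpyridinium chloride, A540 read; inhibition taken against OM-only absorbance.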

C57BL/6 mouse [2] = assay: Warfarin-induced calcification mouse animal model (aortic valve histopathology); format: in vivo; conditions: for blackened area (von Kossa staining, increased calcification): Figure 1, versus warfarin and vitamin K1-induced calcification group (B); for Number of inflammatory cells (cells/mm^2): aortic valve area; for Number of inflammatory cells (cells/mm^2) / Mean thickness (µm): HE staining; for Number of inflammatory cells (cells/mm^2) / Mean thickness (µm) / Calcified area (%/mm^2): warfarin and vitamin K1 for 4 weeks, C57BL/6 mouse; for Mean thickness (µm) / Calcified area (%/mm^2): aortic valve; for Calcified area (%/mm^2): von Kossa staining
Procedure: • 1. Animal: C57BL/6 mouse (OrientBio, Sungnam-city, Korea) • Gender: male • Age on arrival: C57BL/6 (6 weeks) • Raising: Animals were raised in filter cap polycarbonate cages, 5 animals each, in a temperature (25°C) and humidity (45-55%) controlled sterile clean room. The light:dark cycle was 12 hours:12 hours, and sterilized food and water were provided with free access. • Guidelines: All animals were treated in accordance with the Daegu Haany University Institutional Animal Care and Use Committee (Gyeongsan, Korea). • 2. General experimental methods: In vivo drug administration
After acclimating the mice for one week, they were divided into each group and tested.
After acclimation for one week, the groups were randomized.
The mice were divided into four groups: a group that received no treatment (A), a group that was treated with warfarin and vitamin K1 to induce calcification (B), a group that was administered orally with 0.5% CMC (carboxymethyl Cellulose) (C), and a group that was administered with the test compound. The compounds of Example 1 (K) and Example 6 (L) were selected as the test compound.
All groups, except the untreated control group (Normal), were administered both warfarin and vitamin K1 at 8:00 AM and warfarin alone at 8:00 PM for 4 weeks.
Heart tissue samples were obtained from each group and used for analysis.
as §1

Compound | pIC50 (TNAP) | inhibition at 1 µM (saos-2 cells) [%] | other results
COc1ccc(Cl)cc1S(=O)(=O)Nc1cnc2c(c1)C(=O)NCC2 [Example 6, 5-chloro-2-methoxy-N-(5-oxo-5,6,7,8-tetrahydro-1,6-naphthyridine-3-yl)benzenesulfonamide] | ≥ 8.00 | ≥ 50 | blackened area (von Kossa staining, increased calcification) (C57BL/6 mouse [1]): significantly reduced; Number of inflammatory cells (cells/mm^2) (C57BL/6 mouse [1]): 58.89±17.32 cells/mm^2; Mean thickness (µm) (C57BL/6 mouse [1]): 51.76±10.39 µm; Calcified area (%/mm^2) (C57BL/6 mouse [1]): 2.44±0.92 %/mm^2; blackened area (von Kossa staining, increased calcification) (C57BL/6 mouse [2]): significantly reduced; Number of inflammatory cells (cells/mm^2) (C57BL/6 mouse [2]): 80.40±14.90 cells/mm^2; Mean thickness (µm) (C57BL/6 mouse [2]): 91.69±15.70 µm; Calcified area (%/mm^2) (C57BL/6 mouse [2]): 1.16±0.30 %/mm^2
5-chloro-2-methoxy-N-(5-oxo-6,7-dihydro-5H-pyrrolo[3,4-b]pyridine-3-yl)benzenesulfonamide [Example 1] | 7.00 to 8.00 |  | blackened area (von Kossa staining, increased calcification) (C57BL/6 mouse [1]): significantly reduced; Number of inflammatory cells (cells/mm^2) (C57BL/6 mouse [1]): 110.89±21.64 cells/mm^2; Mean thickness (µm) (C57BL/6 mouse [1]): 64.26±12.34 µm; Calcified area (%/mm^2) (C57BL/6 mouse [1]): 7.95±1.16 %/mm^2; calcification inhibition (saos-2 cells): A (inhibition of 50% or more was expressed as "A"); blackened area (von Kossa staining, increased calcification) (C57BL/6 mouse [2]): significantly reduced; Number of inflammatory cells (cells/mm^2) (C57BL/6 mouse [2]): 144.40±43.12 cells/mm^2; Mean thickness (µm) (C57BL/6 mouse [2]): 112.42±10.81 µm; Calcified area (%/mm^2) (C57BL/6 mouse [2]): 2.45±0.64 %/mm^2
O=C1NCCc2ncc(NS(=O)(=O)c3cc(-c4ccc(C5(C(=O)O)CC5)cc4)cc4c3OCC4)cc21 [Example 38, 1-(4-(7-(N-(5-oxo-5,6,7,8-tetrahydro-1,6-naphthyridine-3-yl)sulfamoyl)-2,3-dihydrobenzofuran-5-yl)phenyl)cyclopropane-1-carboxylic acid] | ≤ 6.00 | < 0 | 
COc1ccc(Cl)cc1S(=O)(=O)Nc1cnc2c(c1)CN(C(=O)OCC(C)(C)C)CC2 [Example 98, neopentyl3-((5-chloro-2-methoxyphenyl)sulfonamido)-7,8-dihydro-1,6-naphthyridine-6(5H)-carboxylate] | 6.00 to 7.00 | ≥ 50 | 
COc1ccc(-c2cnn(S(C)(=O)=O)c2)cc1S(=O)(=O)Nc1cnc2c(c1)C(=O)NCC2 [Example 75, 2-methoxy-5-(1-(methylsulfonyl)-1H-pyrazole-4-yl)-N-(5-oxo-5,6,7,8-tetrahydro-1,6-naphthyridine-3-yl)benzenesulfonamide] | 6.00 to 7.00 | ≥ 50 | 
COc1ccc(-c2cn(C(C)C)nc2C(F)(F)F)cc1S(=O)(=O)Nc1cnc2c(c1)C(=O)NCC2 [Example 81, 5-(1-isopropyl-3-(trifluoromethyl)-1H-pyrazole-4-yl)-2-methoxy-N-(5-oxo-5,6,7,8-tetrahydro-1,6-naphthyridine-3-yl)benzenesulfonamide] | 7.00 to 8.00 | ≥ 50 | 
CCOC(=O)N1CCc2ncc(NS(=O)(=O)c3cc(Cl)ccc3OC)cc2C1 [Example 96, ethyl3-((5-chloro-2-methoxyphenyl)sulfonamido)-7,8-dihydro-1,6-naphthyridine-6(5H)-carboxylate] | 7.00 to 8.00 | ≥ 50 | 
COc1ccc(-c2cnn(C(C)C(=O)O)c2)cc1S(=O)(=O)Nc1cnc2c(c1)C(=O)NCC2 (stereo not drawn) [Example 43, 2-(4-(4-methoxy-3-(N-(5-oxo-5,6,7,8-tetrahydro-1,6-naphthyridine-3-yl)sulfamoyl)phenyl)-1H-pyrazole-1-yl)propanoic acid] | 7.00 to 8.00 | ≥ 50 | 
COc1ccc(Cl)cc1S(=O)(=O)Nc1cnc2c(c1)CN(C(=O)NCC(F)F)CC2 [Example 107, 3-((5-chloro-2-methoxyphenyl)sulfonamido)-N-(2,2-difluoroethyl)-7,8-dihydro-1,6-naphthyridine-6(5H)-carboxamide] | 7.00 to 8.00 | ≥ 50 | 
COc1ccc(-c2cnn(C(C)c3nc(C)no3)c2)cc1S(=O)(=O)Nc1cnc2c(c1)C(=O)NCC2 (stereo not drawn) [Example 70, 2-methoxy-5-(1-(1-(3-methyl-1,2,4-oxadiazole-5-yl)ethyl)-1H-pyrazole-4-yl)-N-(5-oxo-5,6,7,8-tetrahydro-1,6-naphthyridine-3-yl)benzenesulfonamide] | 6.00 to 7.00 | ≥ 50 | 
